Patent US8309558B2, “Compounds for the treatment of hepatitis C” (Bristol-Myers Squibb Company, priority 2008, dated 2012)
Where two headings read alike, the source gives them in different places.

What was measured:
[1] = tested on: HCV; conditions: cited from earlier work
[2] = tested on: HUH-7 cells, constitutively expressing the HCV replicon; assay: HCV Replicon Luciferase Reporter Assay (384-well plates); type: cell-based; conditions: Hepatitis C virus, untitled table after Table 1b, *EC50 determined using 384 well plate method
Protocol: The HCV replicon luciferase assay was developed to monitor the inhibitory effects of compounds described in the disclosure on HCV viral replication. Utilization of a replicon luciferase reporter assay was first described by Krieger et al (Krieger N, Lohmann V, and Bartenschlager R, J. Virol. 75(10):4614-4624 (2001)). HUH-7 cells, constitutively expressing the HCV replicon, were grown in Dulbecco's Modified Eagle Media (DMEM) (Gibco-BRL) containing 10% Fetal calf serum (FCS) (Sigma) and 1 mg/ml G418 (Gibco-BRL). Compounds were serially diluted 3 folds in DMSO for a twenty-point titration and subsequently transferred to sterile 384-well tissue-culture treated plates (Corning cat #3571). The plates were then seeded with 50 μl of cells at a density of 3.0×10^3 cells/well in DMEM containing 4% FCS (final DMSO concentration at 0.5%). After 3 days incubation at 37° C., cells were analyzed for Renilla Luciferase activity using the EnduRen as substrate (Promega cat #E6485). The EnduRen substrate was diluted in DMEM and then added to the plates to a final concentration of 7.5 μM. The plates were incubated for 2 hrs at 37° C. and then read immediately for 30 seconds with Viewlux Imager (PerkinElmer) using a luminescence program. To assess cytotoxicity of compounds, CC50 values were generated by multiplexing the EnduRen-containing plates with Cell Titer-Blue (Promega, cat #G8082). 3 μl of Cell-Titer Blue was added to each well and incubated for 8 hrs at 37° C. The fluorescence signal from each well was read, with an excitation wavelength at 525/10 nm and an emission wavelength of 598/10 nm, using the Viewlux Imager.

[3] = target: T1, HCV NS5B RdRp genotype 1b (Hepatitis C virus genotype 1b, UniProt Q9WMX2); assay: Standard HCV NS5B RdRp enzyme assay; type: biochemical; conditions: HCV NS5B RdRp genotype 1b, read-out: IC50
T1 construct: The protein was expressed with an 18 amino acid C-terminal truncation to enhance the solubility; made in house; host or cells: E. coli BL21(DE3), pET21a vector
Outline: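 Radiometric SPA measuring 3H-UMP incorporation on polyA/biotin-oligo-dT12 (6 nM/180 nM), 0.29 μM total UTP. Enzyme: NS5B 1b lacking last 18 residues, 28 nM final, 30° C for 60 min in 20 mM Hepes pH 7.5, 2.5 mM MgCl2, 2% DMSO. IC50 from seven-point curves.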

[4] = tested on: HCV replicon cells; assay: HCV replicon FRET / luciferase assay (96-well plates); type: cell-based; conditions: Hepatitis C virus, HCV replicon, read-out: EC50
Outline: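 HCV replicon cells (with or without Renilla luciferase reporter) were plated with titrated compounds at 37 °C. After Alamar blue toxicity reading, cells were lysed in reagent containing 20 μM EDANS/DABCYL NS3 protease FRET peptide and 150 mM NaCl, read kinetically at 340/490 nm, or assayed by Dual-Glo luciferase.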

[5] = untitled table after Table 1b, values without asterisk
[6] = second table titled Table 1d (numbers)
[7] = 24 h, second table titled Table 1d (numbers)

T1 sequence (Q9WMX2 2420-2992): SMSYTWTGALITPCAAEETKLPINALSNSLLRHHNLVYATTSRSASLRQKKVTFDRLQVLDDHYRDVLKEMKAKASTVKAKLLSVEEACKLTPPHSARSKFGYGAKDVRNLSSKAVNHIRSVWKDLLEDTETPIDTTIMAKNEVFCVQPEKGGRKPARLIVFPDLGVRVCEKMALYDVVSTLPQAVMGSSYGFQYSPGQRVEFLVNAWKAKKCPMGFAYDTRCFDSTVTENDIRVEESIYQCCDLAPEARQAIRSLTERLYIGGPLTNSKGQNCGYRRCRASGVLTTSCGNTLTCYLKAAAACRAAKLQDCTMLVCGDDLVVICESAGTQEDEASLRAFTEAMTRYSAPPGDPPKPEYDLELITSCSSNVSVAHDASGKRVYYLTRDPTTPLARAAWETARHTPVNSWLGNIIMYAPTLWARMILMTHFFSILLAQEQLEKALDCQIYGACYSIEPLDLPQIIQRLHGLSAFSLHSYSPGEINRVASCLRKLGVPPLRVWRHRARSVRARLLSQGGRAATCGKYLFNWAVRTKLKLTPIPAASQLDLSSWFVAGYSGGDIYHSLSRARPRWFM

CNC(=O)c1c(-c2ccc(F)cc2)oc2cc(N(CCO)S(C)(=O)=O)c(C3CC3)cc12 [HCV-796]
hepatic toxicity ([1]; patients, extended dosing of the combination regimens): hepatic toxicity observed
HCV RNA levels in patients ([1]; single agent or combined with interferon and ribavirin): reduce HCV RNA levels in patients

CNC(=O)c1c(-c2ccc(F)cc2)oc2ccc(-c3cc(C(=O)NC4(c5nc(C)no5)CC4)c(OC)cc3C)cc12 [drawing 598]
EC50 [2]: 1.6 nM
IC50 ([3]; untitled table after Table 1b): 20 nM

CNC(=O)c1c(-c2ccc(F)cc2)oc2ccc(-c3cc(C(=O)NC4(c5ncccn5)CC4)ccc3C)cc12 [drawing 599]
EC50 [2]: 0.304 nM
IC50 ([3]; untitled table after Table 1b): < 20 nM

CNC(=O)c1c(-c2ccc(F)cc2)oc2ccc(-c3cc(C(=O)NC4(c5ccccn5)CC4)cc(F)c3C)cc12 [drawing 600]
EC50 [2]: 0.425 nM
IC50 ([3]; untitled table after Table 1b): 10 nM

CNC(=O)c1c(-c2ccc(F)cc2)oc2ccc(-c3cc(C(=O)NC4(c5ccccc5)CC4)ccc3C)cc12 [drawing 601]
EC50 [2]: 0.786 nM
IC50 ([3]; untitled table after Table 1b): 20 nM

CNC(=O)c1c(-c2ccc(F)cc2)oc2ccc(-c3cc(C(=O)NC4(c5nc(C)no5)CC4)ccc3C)cc12 [drawing 602]
EC50 [2]: 0.805 nM
IC50 ([3]; untitled table after Table 1b): 7.2 nM

CNC(=O)c1c(-c2ccc(F)cc2)oc2ccc(-c3cc(C(=O)NC4(c5ccncc5)CC4)ccc3C)cc12 [drawing 603]
EC50 [2]: 0.83 nM
IC50 ([3]; untitled table after Table 1b): 3.95 nM

CNC(=O)c1c(-c2ccc(F)cc2)oc2ccc(-c3ccc(C(=O)N4CCC[C@@H]4COC)cc3)cc12 [drawing 621]
IC50 ([3]; untitled table after Table 1b): 10400 nM
EC50 [4, 5]: 15400 nM

CNC(=O)c1c(-c2ccc(F)cc2)oc2ccc(-c3cccc(C(=O)N4CC[C@H](NC(C)=O)C4)c3)cc12 [drawing 622]
IC50 ([3]; untitled table after Table 1b): 7130 nM
EC50 [4, 5]: 16100 nM

CNC(=O)c1c(-c2ccc(F)cc2)oc2ccc(-c3cc(C(=O)NC4(c5ncccn5)CC4)ccc3C)c(F)c12 [drawing 623]
EC50 [2]: 5.68 nM

CNC(=O)c1c(-c2ccc(F)cc2)oc2ccc(-c3cc(C(=O)NC4(c5ncc(C)s5)CC4)ccc3C)cc12 [drawing 625]
IC50 ([3]; Table 1d (class symbols)): < 20 nM
EC50 ([4]; 24 h, Table 1d (class symbols)): 1 to 250 nM

CNC(=O)c1c(-c2ccc(F)cc2)oc2ccc(-c3cc(C(=O)NC4(c5ccccn5)CC4)c(OCc4cnccn4)cc3C)cc12 [drawing 660]
IC50 ([3]; Table 1d (class symbols)): 1 to 250 nM
EC50 ([4]; 24 h, Table 1d (class symbols)): 1 to 250 nM

CNC(=O)c1c(-c2ccc(F)cc2)oc2ccc(-c3cc(C(=O)NC4(c5ncccn5)CC4)cc(F)c3C)c(F)c12 [drawing 668]
IC50 ([3]; Table 1d (class symbols)): 1 to 250 nM
EC50 ([4]; 24 h, Table 1d (class symbols)): 1 to 250 nM

CNC(=O)c1c(-c2ccc(F)cc2)oc2ccc(-c3cc(C(=O)NC4(c5ncc(C)s5)CC4)ccc3C)cc12 [drawing 708]
IC50 [3, 6]: < 17 nM
EC50 [4, 7]: 1.9 nM

CNC(=O)c1c(-c2ccc(F)cc2)oc2ccc(-c3cc(C(=O)NC4(c5ccccn5)CC4)c(OCc4cnccn4)cc3C)cc12 [drawing 711]
IC50 [3, 6]: 2.1 nM
EC50 [4, 7]: 1 nM

CNC(=O)c1c(-c2ccc(F)cc2)oc2ccc(-c3cc(C(=O)NC4(c5ncccn5)CC4)cc(F)c3C)c(F)c12 [drawing 712]
IC50 [3, 6]: 8.1 nM
EC50 [4, 7]: 2.4 nM
